Holding throughout (type): cell-based
Test [1] deals with MIApaca2 human pancreatic cancer cell. The test can be described thus: Proliferation inhibitory effect, Cell Titer-Glo viability assay, MIApaca2. The settings on record: MIA PaCa-2, 72 h, 3 days culture with compound, luciferase viability readout, read-out: IC50, concentration for 50% inhibition of cell growth. On the procedure:
(§1) WiDr human colon cancer cells cultured in RPMI1640 medium containing 10% fetal bovine serum, penicillin (100 unit/ml) and streptomycin (100 μg/ml) (SIGMA product) were seeded into a 96-well plate by 2×10^3 cells/90 μl/well. After culturing the cells overnight in a CO2 incubator, 10 μl of the compound (P15) which is diluted in series in 3-folds was added in each well above, and cultured for another 3 days. Then, 50 μl of Cell Titer-Glo Luminescent Cell Viability Assay (Promega product) was added thereto, cells were shaken for 2 minutes and allowed to stand for 15 minutes to allow reaction. After completing the reaction, luciferase activity was measured using the luminometer. The thus obtained measurement value was given as an index for the number of living cells in each well.
(§2) The same experiment as above was carried out, except that WiDr human colon cancer cell was changed to U937 human leukemia cell, KP4 human pancreatic cancer cell, MIApaca2 human pancreatic cancer cell, MDA-MB231 human breast cancer cell, MDA-MB435 human breast cancer cell, DU145 human prostate cancer cell, PC9 human lung cancer cell and OVCAR3 human ovarian cancer, respectively. The concentration (IC50 values) of the compound (P15) required for 50% inhibition of each cancer cell was determined. […]

Test [2] relates to WiDr human colon cancer cell. As to the kind of experiment: Proliferation inhibitory effect, Cell Titer-Glo viability assay, WiDr. The settings on record: 72 h, 3 days culture with compound, luciferase viability readout, read-out: IC50, concentration for 50% inhibition of cell growth. On the procedure: as §1
The same experiment as in Test Example 1 was carried out, except that the compound (P15) was changed to the compound (P16). The concentration (IC50 value) of the compound (P16) required for 50% inhibition of WiDr human colon cancer cell growth was determined.
(In general: Cellular ATP, detected with luciferase, serves as a proxy for viable cell number.)

The subject of test [3] is MDA-MB231 human breast cancer cell. The test can be described thus: Proliferation inhibitory effect, Cell Titer-Glo viability assay, MDA-MB231. The settings on record: MDA-MB-231, 72 h, 3 days culture with compound, luciferase viability readout, read-out: IC50, concentration for 50% inhibition of cell growth. The procedure: as §1, §2
The test system of test [4] is MDA-MB435 human breast cancer cell. As to the kind of experiment: Proliferation inhibitory effect, Cell Titer-Glo viability assay, MDA-MB435. As to conditions: MDA-MB-435, 72 h, 3 days culture with compound, luciferase viability readout, read-out: IC50, concentration for 50% inhibition of cell growth. The procedure: as §1, §2
Test [5] relates to PC9 human lung cancer cell. As to the kind of experiment: Proliferation inhibitory effect, Cell Titer-Glo viability assay, PC9. The settings on record: 72 h, 3 days culture with compound, luciferase viability readout, read-out: IC50, concentration for 50% inhibition of cell growth. On the procedure: as §1, §2
The subject of test [6] is KP4 human pancreatic cancer cell. As to the kind of experiment: Proliferation inhibitory effect, Cell Titer-Glo viability assay, KP4. As to conditions: 72 h, 3 days culture with compound, luciferase viability readout, read-out: IC50, concentration for 50% inhibition of cell growth. On the procedure:
as §1, §2

A further test concerns U937 human leukemia cell. The test can be described thus: Proliferation inhibitory effect, Cell Titer-Glo viability assay, U937. As to conditions: U-937, 72 h, 3 days culture with compound, luciferase viability readout, read-out: IC50, concentration for 50% inhibition of cell growth. On the procedure:
as §1, §2

Test [7] has as its system OVCAR3 human ovarian cancer. As to the kind of experiment: Proliferation inhibitory effect, Cell Titer-Glo viability assay, OVCAR3. As to conditions: OVCAR-3, 72 h, 3 days culture with compound, luciferase viability readout, read-out: IC50, concentration for 50% inhibition of cell growth. On the procedure:
as §1, §2

For test [8], the system named is DU145 human prostate cancer cell. As to the kind of experiment: Proliferation inhibitory effect, Cell Titer-Glo viability assay, DU145. The settings on record: DU-145, 72 h, 3 days culture with compound, luciferase viability readout, read-out: IC50, concentration for 50% inhibition of cell growth. On the procedure:
as §1, §2

The values below come from patent US20080312317A1 (Eisai R&D Management Co., Ltd., priority 2007, published 2008).

On to `CC[C@H](O)[C@@H](C)[C@H]1O[C@@H]1C[C@@](C)(O)/C=C/C=C(\C)[C@H]1NC(=O)CCCCCC(OC(C)=O)/C=C/[C@@H]1C` (stereo partly drawn) [Compound P15, (2S,3S,4E)-2-((1E,3E,5R)-5-hydroxy-6-{(2R,3R)-3-[(1R,2S)-2-hydroxy-1-methylbutyl]oxiran-2-yl}-1,5-dimethylhexa-1,3-dien-1-yl)-3-methyl-12-oxoazacyclododec-4-en-6-yl acetate], for which the IC50 is 0.5 µM in test [1]; 0.57 µM in [2]; 0.47 µM in test [3]; 1.7 µM in [4]; 1.4 µM in test [5]; 1.3 µM in test [6]. The values for the IC50 (in the test on U937 human leukemia cell; in test [7]; in test [8]) were 0.55 µM, 0.43 µM and 2.3 µM, respectively.

For the compound `CC[C@H](O)[C@@H](C)[C@H]1O[C@@H]1C[C@H](C)/C=C/C=C(\C)[C@H]1NC(=O)CCCCCC(OC(C)=O)/C=C/[C@@H]1C` (stereo partly drawn) [Compound P16], the IC50 was determined as 0.14 µM in test [1]; 0.29 µM in test [2]; 0.13 µM in [3]; 0.38 µM in [4]; 0.24 µM in test [5]; 0.3 µM in test [6]. Besides, the IC50 came out at 0.14 µM in the test on U937 human leukemia cell, 0.097 µM in test [7] and 0.51 µM in test [8].
